In patent US11339157B1, “4H-pyrrolo[3,2-c]pyridin-4-one derivatives” (Bayer Aktiengesellschaft, priority 2017, dated 2022):
Several values for one entry are separate records, joined by “and”; a condition that tells them apart may be missing. Equal values may be shown once.

What was measured:
[1] = test system: Ba/F3-EGFR-insSVD cells; assay: Proliferation assay in BA/F3 (ins SVD) cells (Cell Titer-Glo); format: cell-based; conditions: Mus musculus
Method: (§1) Cellular Data Description (WT, insSVD, Ins ASV)
(§2) Plates were incubated at 37° C. for 48 h. Retrovirus was harvested by filtering the media supernatant through a 0.45 μm filter.
(§3) Ba/F3 cells purchased from DSMZ were grown in RPMI+10% FBS+10 ng/mL IL-3 and infected with filtered retroviral supernatant at a 1:2 dilution. Polybrene was added to a concentration of 8 μg/mL, plates were spun for 90 min, and incubated overnight at 37° C. 2 μg/mL puromycin was added to the infected cells 24 h after infection and cells were continually grown in the presence of puromycin and 10 ng/mL IL-3. Following stably expressing Ba/F3 cell lines were generated: Ba/F3-EGFR-WT, Ba/F3-EGFR-insSVD.
(§4) The cells ectopically expressing WT EGFR were plated with 10 ng/mL Millipore Culture grade EGF. The cells ectopically expressing EGFR-insSVD were plated without EGF.
(§5) 100 nL of compound was added to each well using a 100 nL pin head, and plates were incubated at 37° C. for 48 h.
(§6) Cell viability was measured by adding 30 μL of Cell Titer-Glo Luminescent Cell Viability Reagent. Plates were sealed with Perkin Elmer Top-Seal, inverted several times to mix, and immediately centrifuged at 1000 rpm for 2 min. Plates were incubated in low light conditions for 8-10 min and luminescence was measured.

[2] = test system: Ba/F3-EGFR-WT cells; assay: Proliferation assay in BA/F3 (wild type) cells (Cell Titer-Glo); format: cell-based; conditions: Mus musculus
Method: as §1, §2, §3, §4, §5, §6

[3] = target: EGFR ins SVD (insertion of SVD between D770 and N771) (Homo sapiens, UniProt P00533, INS767SVD); assay: Exon 20-Mutant-EGFR(D770_N771insSVD) kinase assay (TR-FRET); format: biochemical; conditions: Table 9; read-out: mutEGFR (D770_N771insSVD) kinase assay IC50
Method: Exon 20-Mutant-EGFR(D770_N771insSVD) Kinase Assay
Inhibitory activity of compounds of the present invention against an Epidermal Growth Factor Receptor (EGFR) with an insertion of the amino acids sequence SVD between D770 and N771 was quantified employing the TR-FRET based kinase activity assay as described in the following paragraphs.
For the assay 50 nl of a 100-fold concentrated solution of the test compound in DMSO was pipetted into either a black low volume 384 well microtiter plate or a black 1536 well microtiter plate (both Greiner Bio-One, Frickenhausen, Germany), 2 μl of a solution of EGFR in aqueous assay buffer [50 mM Hepes pH 7.0, 10 mM MgCl2, 1 mM dithiothreitol, 0.5 mM EGTA, 0.3 mM activated sodium ortho-vanadate, 0.005% (w/v) bovine serum albumin, 0.005% (v/v) Tween-20] were added and the mixture was incubated for 15 min at 22° C. to allow pre binding of the test compounds to the enzyme before the start of the kinase reaction. […] The concentration of EGFR was adjusted depending of the activity of the enzyme lot and was chosen appropriate to have the assay in the linear range, typical concentration was 15 pg/μl. The reaction was stopped by the addition of 3 μl of a solution of HTRF detection reagents (83.3 nM streptavidine-XL665 [Cisbio Bioassays, Codolet, France] and 1.67 nM PT66-Tb-Cryptate, a terbium-cryptate labelled anti-phospho-tyrosine antibody from Cisbio Bioassays [instead of the PT66 Tb cryptate PT66 Eu Chelate from Perkin Elmer can also be used]) in an aqueous EDTA-solution (133.3 mM EDTA, 0.2% (w/v) bovine serum albumin in 50 mM HEPES pH 7.5).
The resulting mixture was incubated 1 h at 22° C. to allow the binding of the biotinylated phosphorylated peptide to the streptavidine-XL665 and the PT66-Tb-Cryptate. Subsequently the amount of phosphorylated substrate was evaluated by measurement of the resonance energy transfer from the PT66-Tb-Cryptate to the streptavidine-XL665.

[4] = BaF3, 48 h, Table 10, plated without EGF
[5] = BaF3, 48 h, Table 10, plated with 10 ng/mL EGF

Chain of EGFR ins SVD (insertion of SVD between D770 and N771) (P00533 with tags, fused parts or gaps INS767SVD limits assumed): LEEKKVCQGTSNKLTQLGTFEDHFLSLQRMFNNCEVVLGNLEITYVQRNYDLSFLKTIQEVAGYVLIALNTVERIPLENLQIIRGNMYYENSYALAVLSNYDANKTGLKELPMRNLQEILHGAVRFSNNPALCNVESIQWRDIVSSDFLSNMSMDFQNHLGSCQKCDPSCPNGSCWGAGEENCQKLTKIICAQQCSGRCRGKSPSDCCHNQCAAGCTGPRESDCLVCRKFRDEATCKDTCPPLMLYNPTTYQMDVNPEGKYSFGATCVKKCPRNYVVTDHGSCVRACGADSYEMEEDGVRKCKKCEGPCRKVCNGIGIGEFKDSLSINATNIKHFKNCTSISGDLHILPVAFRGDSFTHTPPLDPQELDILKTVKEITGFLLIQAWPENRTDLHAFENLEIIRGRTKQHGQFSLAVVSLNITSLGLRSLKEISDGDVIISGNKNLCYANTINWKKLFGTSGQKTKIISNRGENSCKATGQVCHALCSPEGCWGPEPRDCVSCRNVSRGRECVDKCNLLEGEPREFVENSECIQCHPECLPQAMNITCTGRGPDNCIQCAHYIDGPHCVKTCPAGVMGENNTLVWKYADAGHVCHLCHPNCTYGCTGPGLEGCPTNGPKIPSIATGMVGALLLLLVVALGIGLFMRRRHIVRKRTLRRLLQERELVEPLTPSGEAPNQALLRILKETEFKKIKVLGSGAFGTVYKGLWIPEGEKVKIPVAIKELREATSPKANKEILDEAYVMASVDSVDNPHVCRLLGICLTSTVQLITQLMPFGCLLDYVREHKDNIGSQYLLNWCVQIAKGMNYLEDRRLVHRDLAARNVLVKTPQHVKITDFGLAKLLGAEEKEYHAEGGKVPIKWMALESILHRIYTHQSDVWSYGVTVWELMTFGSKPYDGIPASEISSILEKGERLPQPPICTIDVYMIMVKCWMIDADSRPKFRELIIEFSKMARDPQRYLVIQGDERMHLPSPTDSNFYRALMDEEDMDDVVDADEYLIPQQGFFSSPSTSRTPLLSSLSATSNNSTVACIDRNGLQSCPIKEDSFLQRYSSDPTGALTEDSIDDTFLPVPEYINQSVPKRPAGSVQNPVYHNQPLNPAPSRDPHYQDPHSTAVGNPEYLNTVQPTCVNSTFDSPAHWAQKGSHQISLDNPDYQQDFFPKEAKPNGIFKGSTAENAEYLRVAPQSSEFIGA

Row | Structure (SMILES) | IC50 [1, 4] | IC50 [2, 5] | IC50 [3] | IC50 ([1]; BaF3, Table 10, plated without EGF, 48 h) | IC50 ([2]; BaF3, Table 10, plated with 10 ng/mL EGF, 48 h)
1 | COC(C)(C)COc1cnccc1-c1[nH]c2c(c1Nc1cccc(F)c1C#N)C(=O)NCC2 [Example 94, 2-fluoro-6-({2-[3-(2-methoxy-2-methylpropoxy)pyridin-4-yl]-4-oxo-4,5,6,7-tetrahydro-1H-pyrrolo[3,2-c]pyridin-3-yl}amino)benzonitrile] | 54.9 nM | 4620 nM | 0.228 nM | – | –
2 | COC(C)(C)COc1cnccc1-c1[nH]c2c(c1Nc1cccc(Cl)c1C)C(=O)NCC2 [Example 36, 3-(3-chloro-2-methylanilino)-2-[3-(2-methoxy-2-methylpropoxy)pyridin-4-yl]-1,5,6,7-tetrahydro-4H-pyrrolo[3,2-c]pyridin-4-one] | 9.55 nM | 529 nM | 0.194 nM | – | –
3 | Cc1c(F)cc(F)cc1Nc1c(-c2ccncc2OCCN(C)C)[nH]c2c1C(=O)NCC2 [Example 55, 3-(3,5-difluoro-2-methylanilino)-2-{3-[2-(dimethylamino)ethoxy]pyridin-4-yl}-1,5,6,7-tetrahydro-4H-pyrrolo[3,2-c]pyridin-4-one] | 303 nM | 2830 nM | 0.465 nM | – | –
4 | COc1c(F)cccc1Nc1c(-c2ccncc2OCC2CCCO2)[nH]c2c1C(=O)NCC2 (stereo not drawn) [Example 86, 3-(3-fluoro-2-methoxyanilino)-2-{3-[(oxolan-2-yl)methoxy]pyridin-4-yl}-1,5,6,7-tetrahydro-4H-pyrrolo[3,2-c]pyridin-4-one] | 12.8 nM | 377 nM | 0.122 nM | – | –
5 | COc1c(Nc2c(-c3ccncc3OCCN(C)CC(F)(F)F)[nH]c3c2C(=O)NCC3)ccc(F)c1Cl [Example 96, 3-(3-chloro-4-fluoro-2-methoxyanilino)-2-(3-{2-[methyl(2,2,2-trifluoroethyl)amino]ethoxy}pyridin-4-yl)-1,5,6,7-tetrahydro-4H-pyrrolo[3,2-c]pyridin-4-one] | 49.6 nM | 1470 nM | 0.305 nM | – | –
6 | Cc1c(Cl)cccc1Nc1c(-c2ccncc2OCCN(C)C)[nH]c2c1C(=O)NCC2 [Example 52, 3-(3-chloro-2-methylanilino)-2-{3[2-(dimethylamino)ethoxy]pyridin-4-yl}1,5,6,7-tetrahydro-4H-pyrrolo[3,2-c]pyridin-4-one] | 29.1 nM | 834 nM | 0.55 nM | – | –
7 | COc1c(F)cccc1Nc1c(-c2ccncc2OC[C@@H](C)OC)[nH]c2c1C(=O)NCC2 [Example 92, 3-(3-fluoro-2-methoxyanilino)-2-{3-[(2R)-2-methoxypropoxy]pyridin-4-yl}-1,5,6,7-tetrahydro-4H-pyrrolo[3,2-c]pyridin-4-one] | 10.4 nM | 309 nM | 0.118 nM | – | –
8 | COc1c(F)cccc1Nc1c(-c2ccncc2OCCC(C)(C)OC)[nH]c2c1C(=O)NCC2 [Example 57, 3-(3-fluoro-2-methoxyanilino)-2-[3-(3-methoxy-3-methylbutoxy)pyridin-4-yl]1,5,6,7-tetrahydro-4H-pyrrolo[3,2-c]pyridin-4-one] | 14.7 nM | 535 nM | 0.228 nM | – | –
9 | COC(C)(C)COc1cnccc1-c1[nH]c2c(c1Nc1cccc(F)c1Br)C(=O)NCC2 [Example 37, 3-(2-bromo-3-fluoroanilino)-2-[3-(2-methoxy-2-methylpropoxy)pyridin-4-yl]-1,5,6,7-tetrahydro-4H-pyrrolo[3,2-c]pyridin-4-one] | 16 nM | 583 nM | 0.12 nM and 0.0795 nM and 0.107 nM and 0.0958 nM and < 0.0725 nM (2×) | – | –
10 | COc1c(F)cccc1Nc1c(-c2ccncc2OCCN2CCOCC2)[nH]c2c1C(=O)NCC2 [Example 84, 3-(3-fluoro-2-methoxyanilino)-2-{3-[2-(morpholin-4-yl)ethoxy]pyridin-4-yl}-1,5,6,7-tetrahydro-4H-pyrrolo[3,2-c]pyridin-4-one] | – | – | 0.223 nM | 188 nM | 2210 nM
11 | COc1c(Cl)cccc1Nc1c(-c2ccncc2OC[C@@H]2CCCN2C)[nH]c2c1C(=O)NCC2 [Example 48, 3-(3-chloro-2-methoxyanilino)-2-(3-{[(2S)-1-methylpyrrolidin-2-yl]methoxy}pyridin-4-yl)-1,5,6,7-tetrahydro-4H-pyrrolo[3,2-c]pyridin-4-one] | 5.59 nM | 276 nM | 0.358 nM | – | –
12 | COC(C)(C)COc1cnccc1-c1[nH]c2c(c1Nc1cccc(Cl)c1OC(F)F)C(=O)NCC2 [Example 38, 3-[3-chloro-2-(difluoromethoxy)anilino]-2-[3-(2-methoxy-2-methylpropoxy)pyridin-4-yl]-1,5,6,7-tetrahydro-4H-pyrrolo[3,2-c]pyridin-4-one] | 17.5 nM | 466 nM | 0.13 nM | – | –
13 | COc1c(F)cccc1Nc1c(-c2ccncc2OCCN(C)C)[nH]c2c1C(=O)NCC2 [Example 53, 2-{3-[2-(dimethylamino)ethoxy]pyridin-4-yl}-3-(3-fluoro-2-methoxyanilino)-1,5,6,7-tetrahydro-4H-pyrrolo[3,2-c]pyridin-4-one] | 31.1 nM | 804 nM | 0.332 nM | – | –
14 | CN(C)CCOc1cnccc1-c1[nH]c2c(c1Nc1cccc(F)c1OC(F)F)C(=O)NCC2 [Example 64, 3-[2-(difluoromethoxy)-3-fluoroanilino]-2-{3-[2-(dimethylamino)ethoxy]pyridin-4-yl}-1,5,6,7-tetrahydro-4H-pyrrolo[3,2-c]pyridin-4-one] | 121 nM | 1890 nM | 0.443 nM | – | –
15 | COC(C)(C)COc1cnccc1-c1[nH]c2c(c1Nc1cc(F)ccc1C)C(=O)NCC2 [Example 45, 3-(5-fluoro-2-methylanilino)-2-[3-(2-methoxy-2-methylpropoxy)pyridin-4-yl]-1,5,6,7-tetrahydro-4H-pyrrolo[3,2-c]pyridin-4-one] | 255 nM | 2490 nM | 0.319 nM | – | –
16 | COCCOc1cnccc1-c1[nH]c2c(c1Nc1cccc(Cl)c1OC)C(=O)NCC2 [Example 32, 3-(3-chloro-2-methoxyanilino)-2-[3-(2-methoxyethoxy)pyridin-4-yl]-1,5,6,7-tetrahydro-4H-pyrrolo[3,2-c]pyridin-4-one] | 9.87 nM | 299 nM | 0.076 nM and < 0.0725 nM | – | –
17 | Cc1c(Cl)cccc1Nc1c(-c2ccncc2OC[C@@H]2CCCN2C)[nH]c2c1C(=O)NCC2 [Example 77, 3-(3-chloro-2-methylanilino)-2-(3-{[(2S)-1-methylpyrrolidin-2-yl]methoxy}pyridin-4-yl)-1,5,6,7-tetrahydro-4H-pyrrolo[3,2-c]pyridin-4-one] | 46.3 nM | 1480 nM | 0.727 nM | – | –
18 | COC(C)(C)COc1cnccc1-c1[nH]c2c(c1Nc1cc(F)cc(F)c1C)C(=O)NCC2 [Example 40, 3-(3,5-difluoro-2-methylanilino)-2-[3-(2-methoxy-2-methylpropoxy)pyridin-4-yl]-1,5,6,7-tetrahydro-4H-pyrrolo[3,2-c]pyridin-4-one] | 50.5 nM | 1450 nM | 0.0994 nM | – | –
19 | CC(C)(O)COc1cnccc1-c1[nH]c2c(c1Nc1cccc(F)c1OC(F)F)C(=O)NCC2 [Example 73, 3-[2-(difluoromethoxy)-3-fluoroanilino]-2-[3-(2-hydroxy-2-methylpropoxy)pyridin-4-yl]-1,5,6,7-tetrahydro-4H-pyrrolo[3,2-c]pyridin-4-one] | 416 nM | 2520 nM | 0.167 nM | – | –
